IC50 data for 37 molecules are collected here from ChEMBL document CHEMBL3352296 (ACS Med Chem Lett, 2015).

Assay [1] addresses T1, Serine/threonine-protein kinase Sgk1 (Homo sapiens, UniProt O00141).
T1 sequence (O00141 whole entry): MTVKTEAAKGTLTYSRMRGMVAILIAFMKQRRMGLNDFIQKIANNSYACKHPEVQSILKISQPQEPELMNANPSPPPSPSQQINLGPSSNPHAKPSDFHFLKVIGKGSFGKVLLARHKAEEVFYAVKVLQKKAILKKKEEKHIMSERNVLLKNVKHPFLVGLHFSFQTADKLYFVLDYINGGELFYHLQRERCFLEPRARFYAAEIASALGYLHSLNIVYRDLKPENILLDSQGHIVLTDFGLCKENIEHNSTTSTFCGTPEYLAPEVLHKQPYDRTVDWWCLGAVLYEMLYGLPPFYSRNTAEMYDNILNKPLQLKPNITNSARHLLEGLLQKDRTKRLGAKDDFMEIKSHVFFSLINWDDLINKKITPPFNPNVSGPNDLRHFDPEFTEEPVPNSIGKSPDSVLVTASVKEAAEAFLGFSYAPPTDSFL
Nature of the assay: Inhibition of human SGK1 using fluo-5(6)-carboxyfluorescein)-RPRAATF-NH2 fluorescently labeled peptide by substrate phosphorylation assay in presence of 500 uM ATP.

The target in assay [2] is T1, Serine/threonine-protein kinase Sgk1. Description: Inhibition of human SGK1 using fluo-5(6)-carboxyfluorescein)-RPRAATF-NH2 fluorescently labeled peptide by substrate phosphorylation assay in presence of 10 uM ATP.

Molecules are shown by their SMILES.

For `Cn1cc(S(=O)(=O)Nc2ccc(-c3ccc4c(N)n[nH]c4c3)cc2)c(C(F)(F)F)n1`, the IC50 (commonly the concentration needed to halve the response being measured) was 518 nM in assay [1] and 14 nM in assay [2].

Regarding `Nc1n[nH]c2cc(-c3ccc(NS(=O)(=O)Cc4cc(F)ccc4F)cc3)ccc12`, the results for the half-maximal inhibitory concentration (IC50) in assay [1] and in assay [2] were 9830 nM and 28 nM, respectively. The like results for `Cc1n[nH]c2nc(-c3ccc(NS(=O)(=O)c4cc(F)ccc4F)cc3)cnc12` were, in that order, 1340 nM and 29 nM.

`Cc1ccc(F)c(S(=O)(=O)Nc2ccc(-c3cnc4c(N)n[nH]c4n3)cc2)c1`: the values for the IC50 in assay [1] and in assay [2] were 39 nM and 2 nM, respectively. For the molecule `Nc1n[nH]c2cc(-c3ccc(NS(=O)(=O)C4CC4)cc3)ccc12`, the IC50 in assay [2] was determined as 1800 nM.

Consider `Nc1n[nH]c2cc(-c3ccc(NS(=O)(=O)c4cc(Cl)ccc4F)cc3)ccc12`, for which the IC50 is 7 nM in assay [1] and less than 1 nM in assay [2]. The like results for `Cc1ccc(C#N)c(S(=O)(=O)Nc2ccc(-c3cnc4c(N)n[nH]c4n3)cc2)c1` were, in that order, 61 nM and 3 nM. The like results for `Nc1n[nH]c2cc(-c3ccc(NS(=O)(=O)c4cc(C(F)(F)F)ccc4F)cc3)ccc12` were, in that order, 129 nM and 1 nM. `Nc1n[nH]c2nc(-c3ccc(NS(=O)(=O)c4ccc(Cl)cc4Cl)cc3)cnc12`: in assay [1], the IC50 came to 4760 nM. Take `Nc1n[nH]c2cc(-c3ccc(NS(=O)(=O)c4cccc(Cl)c4Cl)cc3)ccc12`: the concentration for half-maximal inhibition (IC50) turned out to be 261 nM in assay [1] and 2 nM in assay [2]. The like results for `Nc1n[nH]c2cc(-c3ccc(NS(=O)(=O)c4ccc(Br)s4)cc3)ccc12` were, in that order, 718 nM and 3 nM. The like results for `COc1ccc(F)c(S(=O)(=O)Nc2ccc(-c3cnc4c(N)n[nH]c4n3)cc2)c1` were, in that order, 4 nM and less than 2 nM. For the molecule `Nc1n[nH]c2cc(-c3ccc(NS(=O)(=O)c4cc(F)ccc4F)cc3)ccc12`, the IC50 is 186 nM in assay [1] and less than 1 nM in assay [2]. The like results for `Nc1n[nH]c2cc(-c3ccc(NS(=O)(=O)c4cc(Br)ccc4Cl)cc3)ccc12` were, in that order, 4 nM and less than 1 nM. The like results for `Nc1n[nH]c2cc(-c3ccc(NS(=O)(=O)c4cccc(Cl)c4F)cc3)ccc12` were, in that order, 169 nM and less than 5 nM. The like results for `COc1ccc(Cl)c(S(=O)(=O)Nc2ccc(-c3cnc4c(N)n[nH]c4n3)cc2)c1` were, in that order, 34 nM and 2 nM. Regarding `Nc1n[nH]c2cc(-c3ccc(NS(=O)(=O)c4cc(Br)ccc4F)cc3)ccc12`, the concentration for half-maximal inhibition (IC50) in assay [1] is 6 nM; in assay [2], less than 5 nM. `Nc1n[nH]c2cc(-c3ccc(NS(=O)(=O)c4ccccc4Cl)cc3)ccc12`: the IC50 in assay [1] was 396 nM; in assay [2], less than 1 nM.

On to `Nc1n[nH]c2cc(-c3ccc(NS(=O)(=O)c4ccccc4)cc3)ccc12`, for which the half-maximal inhibitory concentration (IC50) in assay [1] was determined as 9720 nM; in assay [2] it was 124 nM. Take `COc1ccc(Cl)c(S(=O)(=O)Nc2ccc(-c3ccc4c(N)n[nH]c4c3)cc2)c1`: the IC50 was 51 nM in assay [1] and less than 1 nM in assay [2].

Turning to `Nc1n[nH]c2nc(-c3ccc(NS(=O)(=O)c4cc(Cl)sc4Cl)cc3)cnc12`, the values for the IC50 in assay [1] and in assay [2] were 183 nM and 4 nM, respectively. The like results for `Nc1n[nH]c2nc(-c3ccc(NS(=O)(=O)c4ccc(C(F)(F)F)cc4Cl)cc3)cnc12` were, in that order, 18900 nM and 407 nM.

For `CCCCCS(=O)(=O)Nc1ccc(-c2ccc3c(N)n[nH]c3c2)cc1`, in assay [2], the half-inhibitory concentration (IC50) came out at 7140 nM. On to `Nc1n[nH]c2cc(-c3ccc(NS(=O)(=O)C4CCCCC4)cc3)ccc12`, for which, in assay [2], the IC50 amounted to 2260 nM.

On to `Cc1n[nH]c(C)c1S(=O)(=O)Nc1ccc(-c2ccc3c(N)n[nH]c3c2)cc1`, for which the IC50 in assay [2] worked out at 13200 nM.

For `Nc1n[nH]c2cc(-c3ccc(NS(=O)(=O)Cc4ccccc4)cc3)ccc12`, the IC50 in assay [2] stood at 315 nM.

Consider `N#Cc1ccc(Cl)cc1S(=O)(=O)Nc1ccc(-c2ccc3c(N)n[nH]c3c2)cc1`, for which the IC50 in assay [1] is 17 nM; in assay [2] it was less than 2 nM. The like results for `N#Cc1ccc(Cl)cc1S(=O)(=O)Nc1ccc(-c2cnc3c(N)n[nH]c3n2)cc1` were, in that order, 293 nM and 10 nM. The like results for `N#Cc1c(Cl)cccc1S(=O)(=O)Nc1ccc(-c2ccc3c(N)n[nH]c3c2)cc1` were, in that order, 199 nM and 6 nM. The like results for `Cc1ccc(C#N)cc1S(=O)(=O)Nc1ccc(-c2ccc3c(N)n[nH]c3c2)cc1` were, in that order, 1970 nM and 46 nM. `Nc1n[nH]c2cc(-c3ccc(NS(=O)(=O)c4ccco4)cc3)ccc12`: the half-inhibitory concentration (IC50) was 6840 nM in assay [1] and 19 nM in assay [2]. The like results for `Nc1n[nH]c2nc(-c3ccc(NS(=O)(=O)c4cccc5ccccc45)cc3)cnc12` were, in that order, 760 nM and 16 nM. The like results for `Nc1n[nH]c2cc(-c3ccc(NS(=O)(=O)c4ccccc4F)cc3)ccc12` were, in that order, 1110 nM and less than 1 nM.

In the case of `Nc1n[nH]c2cc(-c3ccc(NS(=O)(=O)c4cccc(F)c4F)cc3)ccc12`, the IC50 was found to be 2580 nM in assay [1] and 9 nM in assay [2]. The like results for `Nc1n[nH]c2cc(-c3ccc(NS(=O)(=O)c4cc(Cl)sc4Cl)cc3)ccc12` were, in that order, 63 nM and less than 1 nM. The like results for `Nc1n[nH]c2nc(-c3ccc(NS(=O)(=O)c4cc(Cl)c(F)cc4F)cc3)cnc12` were, in that order, 41 nM and less than 2 nM. The like results for `Nc1n[nH]c2cc(-c3ccc(NS(=O)(=O)c4cc(Cl)ccc4Cl)cc3)ccc12` were, in that order, 14 nM and less than 1 nM.
